Assay results taken from patent US7772271B2 (priority 2004, dated 2010).

Row | melting point | Compound
1 | 235 to 237 °C | CN(C)C(=O)c1ccc2c(C#N)c(-c3ccc(NS(=O)(=O)C4CC4)cc3)n(C3CCC3)c2c1 [Compound 2297]
2 | 206 to 207 °C | CC(C)S(=O)(=O)Nc1ccc(-c2c(C#N)c3cc(Oc4ncccn4)ccc3n2C2CCC2)cc1 [Compound 2848]
3 | 210 to 212 °C | CC(C)NC(=O)Nc1ccc(-c2c(C#N)c3ccc(OC4COCOC4)cc3n2C2CCC2)cc1 [Compound 2882]
4 | 161 to 162 °C | C[C@@H](OC(=O)Nc1ccc(-c2c(C#N)c3ccc(OCCCCn4cncn4)cc3n2C2CCC2)cc1)C(F)(F)F [Compound 2830]
5 | 180 to 181 °C | CC(C)OC(=O)Nc1ccc(-c2c(C#N)c3ccc(OC4CCOC4)cc3n2C2CC2)cc1 (stereo not drawn) [Compound 1449]
6 | 150 to 151 °C | Cc1nnc(SCCOc2ccc3c(C#N)c(-c4ccc(NC(=O)OC(C)C)cc4)n(C4CCC4)c3c2)s1 [Compound 2699]
7 | 220 to 222 °C | CC(OC(=O)Nc1ccc(-c2c(C#N)c3ccc(OC4CCOC4)cc3n2C2CC2)cc1)C(C)(C)C (stereo not drawn) [Compound 1447]
8 | 209 to 211 °C | CC(C)OC(=O)Nc1ccc(-c2c(C#N)c3cc(OCCCn4ccnc4)ccc3n2C2CCC2)cc1 [Compound 2607]
9 | 183 to 184 °C | N#Cc1c(-c2ccc(NC(=O)OC3CCC3)cc2)n(C2CCC2)c2cc(OC3CCOC3)ccc12 (stereo not drawn) [Compound 1455]
10 | 96 to 98 °C | COCCN(C)C(=O)c1ccc2c(C#N)c(-c3ccc(NC(=O)O[C@H](C)C4CC4)cc3)n(C3CCC3)c2c1 [Compound 2791]
11 | 202 to 204 °C | COCCOc1ccc2c(C#N)c(-c3ccc(C(=O)NC(C)C)cc3)n(C3CCC3)c2c1 [Compound 2753]
12 | 170 to 171 °C | CCOC(=O)Nc1ccc(-c2c(C#N)c3ccc(OCCOC)cc3n2C2CCC2)cc1 [compound 1397, {4-[3-cyano-1-cyclobutyl-6-(2-methoxy-ethoxy)-1H-indole-2-yl]-phenyl}-carbamic acid ethyl ester]
13 | 167 to 168 °C | C=CCNC(=O)Oc1ccc(-c2c(C#N)c3ccc(OC4CCOCC4)cc3n2C2CCC2)cc1 [Compound 3110]
14 | 213 to 216 °C | C[C@@H](OC(=O)Nc1ccc(-c2c(C#N)c3ccc(OC(=O)NC4CCCCC4)cc3n2C2CCC2)cc1)C1CC1 [Compound 3172]
15 | 195 to 197 °C | CC(OC(=O)Nc1ccc(-c2c(C#N)c3ccc(OC4CCOCC4)cc3n2C2CCC2)cc1)C(F)(F)F (stereo not drawn) [Compound 2668]
16 | 180 to 183 °C | CCOc1ccc2c(C#N)c(-c3ccc(NC(=O)O[C@H](C)c4ccncc4)cc3)n(C3CCC3)c2c1 [Compound 2705]
17 | 206 to 208 °C | C[C@@H](OC(=O)Nc1ccc(-c2c(C#N)c3cc(Oc4cnccn4)ccc3n2C2CCC2)cc1)C1CC1 [Compound 2995]
18 | 170 to 172 °C | CCOc1ccc2c(C#N)c(-c3ccc(S(=O)(=O)N4CCC[C@@H]4CO)cc3)n(C3CCC3)c2c1 [Compound 2690]

Row | melting point | Compound
19 | 250 to 252 °C | C[C@@H](OC(=O)Nc1ccc(-c2c(C#N)c3ccc(-c4cccc(N5CCCC5)n4)cc3n2C2CCC2)cc1)C1CC1 [Compound 3258]
20 | 148 to 150 °C | CC(C)OC(=O)Nc1ccc(-c2c(C#N)c3cc(OCCCn4cccn4)ccc3n2C2CCC2)cc1 [Compound 2606]
21 | 118 to 120 °C | CC(OC(=O)Nc1ccc(-c2c(C#N)c3ccc(OC4CCOCC4)cc3n2C2CCC2)cc1)C1CC1 (stereo not drawn) [Compound 2615]
22 | 205 to 207 °C | CCNC(=O)Oc1ccc(-c2c(C#N)c3ccc(OC4CCOCC4)cc3n2C2CCC2)cc1 [Compound 2807]
23 | 225 to 226 °C | CCN(CC)C(=O)c1ccc2c(c1)c(C#N)c(-c1ccc(NC(=O)OC(C)C)cc1)n2C1CCC1 [Compound 3145]
24 | 140 °C (dec.) | C[C@@H](OC(=O)Nc1ccc(-c2c(C#N)c3ccc(N4CCCC4=O)cc3n2C2CCC2)cc1)C1CC1 [Compound 3332]
25 | 75 to 77 °C | COCCN(CCOC)C(=O)c1ccc2c(C#N)c(-c3ccc(NC(=O)O[C@H](C)C4CC4)cc3)n(C3CCC3)c2c1 [Compound 2794]
26 | 249 to 256 °C | CC(C)n1c(-c2ccc(NC(=O)O[C@H](C)C3CC3)cc2)c(C#N)c2ccc(OC3CCS(=O)(=O)CC3)cc21 [Compound 3235]
27 | 163 to 168 °C | C[C@@H](OC(=O)Nc1ccc(-c2c(C#N)c3cc(N4CCOCC4)ccc3n2C2CCC2)cc1)c1ccc(F)cc1 [Compound 2829]
28 | 136 to 138 °C | CC(C)OC(=O)Nc1ccc(-c2c(C#N)c3cc(C(=O)N(C)C)ccc3n2C2CCC2)cc1 [Compound 3146]
29 | 228 to 230 °C | COCCOc1ccc2c(C#N)c(-c3ccc(C(=O)NC4CC4)cc3)n(C3CCC3)c2c1 [Compound 2760]
30 | 265 to 271 °C | CC(C)OC(=O)Nc1ccc(-c2c(C#N)c3ccc(OCS(C)(=O)=O)cc3n2C2CCCC2)cc1 [Compound 3067]
31 | 190 to 196 °C | C[C@@H](OC(=O)Nc1ccc(-c2c(C#N)c3ccc(OCS(C)(=O)=O)cc3n2C2CC2)cc1)C(F)(F)F [Compound 3054]
32 | 147 to 149 °C | N#Cc1c(-c2ccc(Oc3ccccn3)cc2)n(C2CCC2)c2cc(OC3CCOCC3)ccc12 [Compound 3169]
33 | 243 to 249 °C | C[C@@H](OC(=O)Nc1ccc(-c2c(C#N)c3ccc(OC4CCS(=O)(=O)CC4)cc3n2C2CCC2)cc1)C(F)(F)F [Compound 3187]
34 | 229 to 231 °C | N#Cc1c(-c2ccc(NC3CCC3)nc2)n(C2CCC2)c2cc(Oc3ncccn3)ccc12 [Compound 3348]
35 | 223 to 225 °C | CCCS(=O)(=O)Nc1ccc(-c2c(C#N)c3ccc(Oc4ncccc4Br)cc3n2C2CC2)cc1 [Compound 3003]

Second part, the compound before the results:

Row | Compound | melting point
36 | CCCS(=O)(=O)Nc1ccc(-c2c(C#N)c3ccc(OCCCN4C(=O)CCC4=O)cc3n2C2CCC2)cc1 [Compound 3296] | 215 to 216 °C
37 | CCn1c(-c2ccc(NC(=O)C3CC3)cc2)c(C#N)c2ccc(OCCN3CCCN(C)CC3)cc21 [Compound 1395] | 95.9 to 99 °C
38 | CC(C)OC(=O)Nc1ccc(-c2c(C#N)c3ccc(N4CCOCC4)cc3n2C2CCC2)cc1Cl [Compound 3011] | 196 to 199 °C
39 | CCCS(=O)(=O)Nc1ccc(-c2c(C#N)c3ccc(N4CCCCC4)cc3n2CC2CC2)cc1 [Compound 2963] | 189 to 194 °C
40 | CCCS(=O)(=O)Nc1ccc(-c2c(C#N)c3ccc(Oc4cnccc4C#N)cc3n2CC2CC2)c(C)c1 [Compound 3303] | 138 to 142 °C
41 | CCN(CC)c1nc2ccc(-c3c(C#N)c4ccc(OC)cc4n3CC)cc2s1 [compound 1343, 2-(2-Diethylaminobenzothiazol-6-yl)-1-ethyl-6-methoxy-1H-indole-3-carbonitrile] | 155 to 158 °C
42 | N#Cc1c(-c2ccc(Nc3cccc(OC(F)(F)F)c3)cc2)n(C2CCC2)c2cc(OC3CCOCC3)ccc12 [Compound 3129] | 108 to 110 °C
43 | C[C@H](NS(=O)(=O)Nc1ccc(-c2c(C#N)c3ccc(N4CCOCC4)cc3n2C2CCC2)cc1)C1CC1 [Compound 3314] | 198 to 199 °C
44 | CS(=O)(=O)Nc1ccc(-c2c(C#N)c3ccc(N4CCCCC4)cc3n2C2CCC2)cc1 [Compound 2984] | 229 to 233 °C
45 | COc1ccc2c(Cl)c(-c3ccc(NC(=O)OC(C)C)cc3)n(CC3CC3)c2c1 [compound 2804, [4-(3-chloro-1-cyclopropylmethyl-6-methoxy-1H-indol-2-yl)-phenyl]-carbamic acid isopropyl ester] | 171 to 177 °C
46 | CCOc1ccc(-c2c(C#N)c3ccc(N4CCN(C)CC4)cc3n2CC)cc1 [Compound 1338] | 186 to 187 °C
47 | N#Cc1c(-c2ccc(OC[C@H]3CCCO3)cc2)n(CC2CC2)c2cc(OC3CCOCC3)ccc12 [Compound 2789] | 133 to 134 °C
48 | CCn1c(-c2ccc(N3CCCS3(=O)=O)cc2)c(C#N)c2ccc(N3CCN(C(=O)c4ccccc4)CC3)cc21 [Compound 1358] | 260 to 261 °C
49 | CC(C)S(=O)(=O)Nc1ccc(-c2c(C#N)c3ccc(OC(F)F)cc3n2CC2CCCO2)cc1 (stereo not drawn) [Compound 1336] | 173 to 176 °C
50 | CCN(CC)C(=O)Nc1ccc(-c2c(C#N)c3ccc(OCCOC)cc3n2CC)cc1 [Compound 1378] | 147 to 150 °C
51 | CCCS(=O)(=O)Nc1ccc(-c2c(C#N)c3ccc(N4CCCC4=O)cc3n2C2CCC2)cc1 [Compound 3198] | 279 to 282 °C
52 | CCCS(=O)(=O)Nc1ccc(-c2c(C#N)c3ccc(Oc4nccc(C(F)(F)F)n4)cc3n2CC2CC2)c(C)c1 [Compound 2981] | 174 to 177 °C
53 | CCCS(=O)(=O)Nc1ccc(-c2c(C#N)c3ccc(Oc4nccnc4C#N)cc3n2C2CCC2)c(C)c1 [Compound 3274] | 222 to 225 °C
54 | N#Cc1c(-c2cnc(NC3CCCCC3)nc2)n(C2CCC2)c2cc(Oc3ncccn3)ccc12 [Compound 3331] | 217 to 218 °C
55 | O=S1(=O)CCCN1c1ccc(-c2cc3ccc(Oc4ncccn4)cc3n2CC2CC2)cc1 [Compound 3326] | 98 to 99 °C
56 | COCCOc1ccc2c(C#N)c(-c3ccc(C(=O)N4CCC4)cc3)n(C3CCC3)c2c1 [Compound 2755] | 166 to 168 °C
57 | CC(C)n1c(-c2ccc(N3CCCCS3(=O)=O)cc2)c(C#N)c2ccc(N3CCOCC3)cc21 [Compound 3215] | 260 to 271 °C
58 | COCCOc1ccc2c(C#N)c(-c3ccc(NC(=O)OC(C)C(C)(C)C)cc3)n(C(C)C)c2c1 (stereo not drawn) [Compound 2670] | 204 to 205 °C
59 | CCCS(=O)(=O)Nc1ccc(-c2c(C#N)c3cc(C(=O)N(C)C)ccc3n2C2CCC2)cc1 [Compound 3094] | 236 to 237 °C
60 | CCn1c(-c2ccc3c(c2)CCC(=O)N3)c(C#N)c2ccc(OC(C)C)cc21 [Compound 3227] | 148 to 150 °C
61 | CCCNC(=O)Oc1ccc(-c2c(C#N)c3ccc(OC4CCOCC4)cc3n2CC2CC2)cc1 [Compound 2781] | 147 to 148 °C
62 | Cc1cc(-c2c(C#N)c3ccc(OCC(F)F)cc3n2C2CCC2)ccc1NC(=O)OC(C)C(F)(F)F (stereo not drawn) [Compound 3049] | 154 to 155 °C
63 | CC(C)n1c(-c2ccc(N(S(C)(=O)=O)S(C)(=O)=O)cc2)c(C#N)c2ccc(OC(F)F)cc21 [Compound 1342] | 232 to 234 °C
